Several values for one entry are separate records, joined by “and”; a condition that tells them apart may be missing. Equal values may be shown once. Toxic doses and inconclusive results are not listed.
Tested on: L1210 leukemia ip in BDF1 mice, survival T/C
Assay: NCI In Vivo Anticancer Drug Screen. Data for tumor model L1210 Leukemia (intraperitoneal) in B6D2F1 (BDF1) mice
Conditions: endpoint: mean survival time, higher = longer survival
Outline: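 Antitumor effect is assessed in tumor-bearing animals. Survival in the compound arm is compared with a vehicle-dosed control arm and expressed as their quotient.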

[1] = dose: 100.0 mg/kg/injection, schedule: Q01DX001 (ip), vehicle: carboxymethylcellulose (CMC)
[2] = dose: 100.0 mg/kg/injection, schedule: Q01DX001 (ip), vehicle: saline
[3] = dose: 100.0 mg/kg/injection, schedule: Q04DX003 (ip), vehicle: saline
[4] = dose: 200.0 mg/kg/injection, schedule: Q04DX003 (ip), vehicle: saline
[5] = dose: 400.0 mg/kg/injection, schedule: Q04DX003 (ip), vehicle: saline
[6] = dose: 100.0 mg/kg/injection, schedule: Q04DX003 (ip), vehicle: Klucel (hydroxypropylcellulose) (HPC)
[7] = dose: 100.0 mg/kg/injection, schedule: Q04DX003 (ip), vehicle: saline with Tween-80
[8] = dose: 200.0 mg/kg/injection, schedule: Q04DX003 (ip), vehicle: saline with Tween-80
[9] = dose: 400.0 mg/kg/injection, schedule: Q04DX003 (ip), vehicle: saline with Tween-80
[10] = dose: 100.0 mg/kg/injection, schedule: Q01DX009 (ip), vehicle: Klucel (hydroxypropylcellulose) (HPC)
[11] = dose: 200.0 mg/kg/injection, schedule: Q01DX009 (ip), vehicle: Klucel (hydroxypropylcellulose) (HPC)
[12] = dose: 400.0 mg/kg/injection, schedule: Q01DX009 (ip), vehicle: Klucel (hydroxypropylcellulose) (HPC)
[13] = dose: 100.0 mg/kg/injection, schedule: Q01DX001 (ip), vehicle: Klucel (hydroxypropylcellulose) (HPC)
[14] = dose: 200.0 mg/kg/injection, schedule: Q01DX001 (ip), vehicle: Klucel (hydroxypropylcellulose) (HPC)
[15] = dose: 400.0 mg/kg/injection, schedule: Q01DX001 (ip), vehicle: Klucel (hydroxypropylcellulose) (HPC)

CN(C)/N=C(\CBr)c1ccc([N+](=O)[O-])cc1
T/C (dose: 50.0 mg/kg/injection, schedule: Q01DX009 (ip), vehicle: saline with Tween-80): 96 % of control
T/C (dose: 100.0 mg/kg/injection, schedule: Q01DX009 (ip), vehicle: saline with Tween-80): 96 % of control
T/C (dose: 200.0 mg/kg/injection, schedule: Q01DX009 (ip), vehicle: saline with Tween-80): 89 % of control

O=C(O)CCSc1nc[nH]c1[N+](=O)[O-]
T/C (dose: 100.0 mg/kg/injection, schedule: Q01DX001 (ip), vehicle: saline with Tween-80): 102 % of control
T/C (dose: 200.0 mg/kg/injection, schedule: Q01DX001 (ip), vehicle: saline with Tween-80): 96 % of control
T/C (dose: 400.0 mg/kg/injection, schedule: Q01DX001 (ip), vehicle: saline with Tween-80): 96 % of control

O=C(O)c1ccccc1/C=N/NC(=O)C(O)(c1ccccc1)c1ccccc1
T/C [1]: 114 % of control
T/C (dose: 200.0 mg/kg/injection, schedule: Q01DX001 (ip), vehicle: carboxymethylcellulose (CMC)): 101 % of control
T/C (dose: 400.0 mg/kg/injection, schedule: Q01DX001 (ip), vehicle: carboxymethylcellulose (CMC)): 103 % of control

O=C(O)c1cccc2ccc3ccccc3c12
T/C [2]: 121 % of control
T/C [3]: 102 % of control
T/C (dose: 200.0 mg/kg/injection, schedule: Q01DX001 (ip), vehicle: saline): 101 % of control
T/C [4]: 96 % of control
T/C (dose: 400.0 mg/kg/injection, schedule: Q01DX001 (ip), vehicle: saline): 97 % of control
T/C [5]: 96 % of control

O=P(Cc1ccccc1)(Cc1ccccc1)c1ccccc1
T/C (dose: 25.0 mg/kg/injection, schedule: Q04DX003 (ip), vehicle: Klucel (hydroxypropylcellulose) (HPC)): 102 % of control
T/C (dose: 50.0 mg/kg/injection, schedule: Q04DX003 (ip), vehicle: Klucel (hydroxypropylcellulose) (HPC)): 118 % of control
T/C [6]: 95 % of control and 104 % of control

CCOP(OCC)Oc1ccccc1
T/C [7]: 92 % of control
T/C [8]: 109 % of control
T/C [9]: 100 % of control

O=C(Nc1cccc2ccccc12)Oc1ccc2ccccc2c1
T/C (dose: 100.0 mg/kg/injection, schedule: Q04DX002 (ip), vehicle: Klucel (hydroxypropylcellulose) (HPC)): 96 % of control
T/C (dose: 200.0 mg/kg/injection, schedule: Q04DX002 (ip), vehicle: Klucel (hydroxypropylcellulose) (HPC)): 93 % of control
T/C (dose: 400.0 mg/kg/injection, schedule: Q04DX002 (ip), vehicle: Klucel (hydroxypropylcellulose) (HPC)): 116 % of control

CCOC(=O)c1cnc(C)nc1NCc1ccco1
T/C [6]: 103 % of control
T/C (dose: 200.0 mg/kg/injection, schedule: Q04DX003 (ip), vehicle: Klucel (hydroxypropylcellulose) (HPC)): 95 % of control
T/C (dose: 400.0 mg/kg/injection, schedule: Q04DX003 (ip), vehicle: Klucel (hydroxypropylcellulose) (HPC)): 98 % of control

Cn1cnc([N+](=O)[O-])c1[Se]c1nc(N)nc2c1ncn2C1OC(CO)C(O)C1O (stereo not drawn)
T/C (dose: 12.5 mg/kg/injection, schedule: Q01DX009 (ip), vehicle: saline): 161 % of control and 165 % of control
T/C (dose: 25.0 mg/kg/injection, schedule: Q01DX009 (ip), vehicle: saline): 189 % of control and 201 % of control
T/C (dose: 50.0 mg/kg/injection, schedule: Q01DX009 (ip), vehicle: saline): 203 % of control and 255 % of control

Cc1cc(C(C(N)=O)c2ccccc2)ccc1N(CCCl)CCCl (stereo not drawn)
T/C (dose: 2.0 mg/kg/injection, schedule: Q01DX009 (ip), vehicle: carboxymethylcellulose (CMC)): 116 % of control
T/C (dose: 3.7 mg/kg/injection, schedule: Q01DX015 (ip), vehicle: carboxymethylcellulose (CMC)): 121 % of control
T/C (dose: 4.0 mg/kg/injection, schedule: Q01DX009 (ip), vehicle: carboxymethylcellulose (CMC)): 124 % of control
T/C (dose: 7.2 mg/kg/injection, schedule: Q04DX003 (ip), vehicle: acetone): 104 % of control
T/C (dose: 20.0 mg/kg/injection, schedule: Q01DX009 (ip), vehicle: Klucel (hydroxypropylcellulose) (HPC)): 153 % of control
T/C (dose: 21.0 mg/kg/injection, schedule: Q04DX003 (ip), vehicle: acetone): 109 % of control and 121 % of control
T/C (dose: 21.0 mg/kg/injection, schedule: Q04DX003 (ip), vehicle: saline): 112 % of control
T/C (dose: 33.0 mg/kg/injection, schedule: Q04DX003 (ip), vehicle: saline): 118 % of control
T/C (dose: 37.5 mg/kg/injection, schedule: Q01DX009 (ip), vehicle: saline with Tween-80): 86 % of control
T/C (dose: 40.0 mg/kg/injection, schedule: Q01DX009 (ip), vehicle: Klucel (hydroxypropylcellulose) (HPC)): 101 % of control
T/C (dose: 45.0 mg/kg/injection, schedule: Q01DX015 (ip), vehicle: carboxymethylcellulose (CMC)): 95 % of control
T/C (dose: 49.0 mg/kg/injection, schedule: Q04DX003 (ip), vehicle: acetone): 120 % of control
T/C (dose: 50.0 mg/kg/injection, schedule: Q01DX001 (ip), vehicle: carboxymethylcellulose (CMC)): 114 % of control
T/C (dose: 50.0 mg/kg/injection, schedule: Q04DX003 (ip), vehicle: acetone): 123 % of control
T/C (dose: 50.0 mg/kg/injection, schedule: Q04DX003 (ip), vehicle: saline): 106 % of control
T/C (dose: 64.0 mg/kg/injection, schedule: Q01DX009 (ip), vehicle: carboxymethylcellulose (CMC)): 106 % of control
T/C (dose: 66.0 mg/kg/injection, schedule: Q01DX001 (ip), vehicle: saline): 116 % of control
T/C (dose: 66.0 mg/kg/injection, schedule: Q04DX003 (ip), vehicle: acetone): 112 % of control
T/C (dose: 88.8 mg/kg/injection, schedule: Q01DX001 (ip), vehicle: carboxymethylcellulose (CMC)): 123 % of control
T/C [1]: 112 % of control
T/C [2]: 100 % of control
T/C (dose: 150.0 mg/kg/injection, schedule: Q04DX003 (ip), vehicle: acetone): 96 % of control
T/C (dose: 300.0 mg/kg/injection, schedule: Q01DX001 (ip), vehicle: carboxymethylcellulose (CMC)): 152 % of control

Nc1nc(S)c(N)c(=S)[nH]1
T/C (dose: 9.5 mg/kg/injection, schedule: Q01DX001 (ip), vehicle: carboxymethylcellulose (CMC)): 105 % of control
T/C (dose: 19.0 mg/kg/injection, schedule: Q01DX001 (ip), vehicle: carboxymethylcellulose (CMC)): 94 % of control
T/C (dose: 38.0 mg/kg/injection, schedule: Q01DX001 (ip), vehicle: carboxymethylcellulose (CMC)): 97 % of control

O=C(Nc1ccccc1C(F)(F)F)OCCOc1ccc(Cl)cc1
T/C [10]: 98 % of control
T/C [11]: 91 % of control
T/C [12]: 87 % of control

CNc1nnnn1-c1ccccc1C
T/C [13]: 93 % of control
T/C [14]: 98 % of control
T/C [15]: 105 % of control

Cc1ccc(C)c(NC(=O)OCCOc2ccccc2)c1
T/C [10]: 101 % of control
T/C [3]: 103 % of control
T/C [11]: 90 % of control
T/C [4]: 104 % of control
T/C [12]: 91 % of control
T/C [5]: 101 % of control

CO/N=C/c1ccc([N+](=O)[O-])cc1
T/C [13]: 96 % of control
T/C [14]: 95 % of control
T/C [15]: 98 % of control

CN(Cc1cnc2nc(N)cc(N)c2n1)c1ccc(C(=O)NC(CCC(=O)O)C(=O)O)cc1 (stereo not drawn)
T/C (dose: 0.5 mg/kg/injection, schedule: Q01DX009 (ip), vehicle: other): 102 % of control
T/C (dose: 1.0 mg/kg/injection, schedule: Q01DX009 (ip), vehicle: other): 100 % of control
T/C (dose: 2.0 mg/kg/injection, schedule: Q01DX009 (ip), vehicle: other): 112 % of control
T/C (dose: 4.0 mg/kg/injection, schedule: Q01DX009 (ip), vehicle: other): 105 % of control
T/C (dose: 8.0 mg/kg/injection, schedule: Q01DX009 (ip), vehicle: other): 117 % of control
T/C (dose: 50.0 mg/kg/injection, schedule: Q01DX009 (ip), vehicle: other): 154 % of control
T/C (dose: 100.0 mg/kg/injection, schedule: Q01DX009 (ip), vehicle: other): 164 % of control

CC1(C)CN1CC1CO1 (stereo not drawn)
T/C (dose: 3.0 mg/kg/injection, schedule: Q01DX Z (ip), vehicle: saline): 120 % of control
T/C (dose: 5.0 mg/kg/injection, schedule: Q01DX Z (ip), vehicle: saline): 120 % of control
T/C (dose: 7.0 mg/kg/injection, schedule: Q01DX Z (ip), vehicle: saline): 114 % of control and 118 % of control and 124 % of control
T/C (dose: 11.0 mg/kg/injection, schedule: Q01DX Z (ip), vehicle: saline): 109 % of control

CNC(=O)O/N=C/c1cccc(/C=N/OC(=O)NC)c1
T/C [7]: 97 % of control
T/C [8]: 97 % of control
T/C [9]: 103 % of control

CCN(CC)C(=O)C(Cc1ccc(OC)c(OC)c1)C(Cc1ccc(OC)c(OC)c1)C(=O)O (stereo not drawn)
T/C [7]: 114 % of control
T/C [8]: 102 % of control
T/C [9]: 105 % of control

Reference: PubChem BioAssay AID248 (DTP/NCI, 2004)
